Test results as given in patent US20260085315A1, “POLYNUCLEOTIDE COMPOSITIONS AND METHODS FOR TREATMENT OF CANCER” (APTAH BIO, INC., priority 2023, published 2026).
Several values for one entry are separate records, joined by “and”; a condition that tells them apart may be missing. Identical values can stand only once. d = 2'-deoxy (DNA); m = 2'-O-methyl

Experiments:
SH-SY5Y cell line [1] = experiment: MTT mitochondrial activity / cell viability; assay type: cell-based, Human; settings: any concentration; 24 and 48 hours
Experimental: FIG. 22A-22B illustrates the evaluation of mitochondrial activity in SH-SY5Y cell line after incubation in ASMO1. MTT assay was performed after 24 hours (FIG. 22A) and 48 hours (FIG. 22B) of incubation.

SH-SY5Y cell line [2] = experiment: MTT cytotoxicity assay on human cancer cell panel (Example 2); assay type: cell-based; settings: 0.03-30 μM tested, 0.1% FBS
Experimental: Cell lines were maintained in growth medium with 10% of Fetal Bovine Serum (FBS) until the time of the experiments. Cells were sub-cultured by trypsinization and splitting the cell suspension into fresh flasks and supplementing with fresh culture medium. To perform the assay, the cells were trypsinized, neutralized with complete medium (10% FBS), centrifuged, counted with assistance of a hemocytometer, and plated with the respective media with 10% FBS. Cell lines were plated at a density of 1×10^4 cells per well, other than the SH-SY5Y cell line which was plated at a density of 2.5×10^4. […] After 24, 48, 72 and 96 hours of incubation, the effect of ASMO1 and controls on cytotoxicity of cells was determined by MTT assay.
Briefly, plates were taken out and 20 μl of 5 mg/ml of MTT 3-(4,5-dimethythiazol-2-yl)-2,5-diphenyl tetrazolium bromide solution was added to all the wells. […] The absorbance of each well was then read at 540 nm using Synergy HT microplate reader.
As shown in FIG. 13A-D, up to 72 hours ASMO1 APT20TTMG seems to have a cytotoxic effect from the concentration of […]. At 96 hours, the profile is a little different, and the concentration of 0.3 μM seems to start some effect. […] MTT assay was performed in 4 distinct times and graphs are represented as absorbance (540 nm). […]

U87-MG cell line = experiment: Distribution of cell cycle phases; assay type: cell-based, Human; settings: 0.25 μM, 48 hours
Experimental: The methodologies for this Example are the same as shown in Example 4.
Cells were plated and treated with 3 different concentrations (0.25, 0.5, and 1 μM) of APT20TTMG and cell cycle phases were evaluated after 48 hours of incubation. Cell proliferation is regulated by cell cycle progression. Phases: Sub/G1: non-proliferative state (quiescence); G1/G0: cell growth; S: DNA replication; G2/M: DNA segregation and mitosis. Results were expressed as Mean Standard Error of three independent experiments.

[3] = test system: Human Glioblastoma Cancer (U-87MG) xenograft; experiment: Histopathology of tumor samples with scoring; assay type: in vivo, athymic nude mice; parameters: key: 1: Few; 2: Moderate; 3: Large; settings: individual animals; G3 APT20TTMG, G2 TMZ
Description: The fixed tissues were processed for routine paraffin embedding followed by sectioning (3-6 micron). The sections were stained with hematoxylin and eosin. The prepared slides were examined under microscope by the study pathologist to record histopathological findings in tumor samples, related to capsule formation, cell type, connective tissue stroma, apoptosis, necrosis, lipid content, nucleus-to-cytoplasmic (N:C) ratio, nuclei mitotic figures, tumor grade, and level of differentiation. Each histopathological finding and tumor volume were assigned a score ranging from 1 to 4 (Table 7). The sum of these scores for each sample was used to infer the tumor aggressiveness.

SH-SY5Y cell line [4] = experiment: Mitochondrial membrane potential; assay type: cell-based, Human; settings: all treatments vs non-treated cells
[5] = test system: U87MG (Human Glioblastoma); experiment: BrdU cell proliferation assay; assay type: cell-based
Experimental: In vitro effects of APT20TTMG on viability and proliferation of human cancer cell line U87MG (Human Glioblastoma) were also evaluated by MTT and BrdU assays, respectively. Cells were treated with APT20TTMG and Reference Items in technical triplicates (Experiment was done in 3 different sets) at various concentrations for 48 h, 96 h, and 144 h. APT20TTMG and Reference Items were read after every 48 h.
As shown in FIGS. 32-33, A MTT assay (FIG. 32) was also performed with another five different concentrations of APT20TTMG (0.003, 0.03, 0.3, 3, and 30 μM) and at 48, 96, and 144 hours of incubation. […] Finally, to confirm whether APT20TTMG is a cytotoxic or cytostatic molecule considering its ability to reduce cellular viability in certain concentrations, a cell proliferation assay (FIG. 33) with the U87-MG cell line was also performed in the same conditions as the MTT assay. […] Cells were plated and treated with 5 different concentrations (0.003, 0.03, 0.3, 3, and 30 μM). BrdU assay was performed after 48, 96, or 144 hours of incubation. Data are plotted as a percentage (%) of cell viability compared to the negative control group (vehicle). Results are expressed as Mean±SEM of three independent experiments performed in three technical replicates. Statistical analysis was performed using one-way ANOVA followed by Dunnett's multiple comparison test. *p<0.05, **p<0.01, ***p<0.001, ****p<0.0001.

MAPT = MAPT expression by qPCR in SK-N-SH; assay type: cell-based; settings: 0.5 μM; for reduction of MAPT expression: relative to Lipofectamine 3000 only
Experimental: FIG. 27A-27B illustrates MAPT expression and tau quantification obtained after 24, 48, 96 and 144 hours of incubation with ASMO1 (0.5 μM) in neuroblastoma cell line.
At all time points cells were rinsed once with PBS, before proceeding with RNA extraction using the RNeasy Plus Kit (Qiagen). RNA (0.1-1 μg) was converted to cDNA using the SuperScript IV First-Strand Synthesis System (Thermo Fisher), following manufacturer instructions. After RNA removal, 5-10 ng of cDNA were amplified by qPCR. The following Taqman probes (Thermo Fisher) were used: Total TAU (MAPT, Assay ID: Hs00902193_m1), GAPDH (GAPDH, Assay ID: Hs99999905_m1). Gene expression was analyzed using the Applied Biosystems QuantStudio™ 12K Flex Real-Time PCR System. Quantification of gene expression was performed using the comparative threshold cycle (2^-ΔΔCT) Livak method, relative to Lipofectamine 3000 only treated cells. Gene expression was normalized to the reference gene GAPDH.

In the case of “APT20TTMG: engineered polynucleotide ASMO1, 24 nt, SEQ ID NO: 3 gtccactaacctttcaggccagcg; targeting moieties 5′-GTCCA-3′ and 5′-CG-3′, U1 snRNP recruiting moiety (GTCCACTAACCTTTCAGGCCAGCG; sugars from the 5' end m5 d14 m5, all phosphorothioate, methylation of C and T or U not given here)”, the “cell viability (MTT)” value (SH-SY5Y cell line [1]) was “no change in cell viability”, the “concentration that starts some effect (MTT)” value (SH-SY5Y cell line [2]; 96 hours) was no less than 0.3 µM and the “concentration from which a cytotoxic effect is seen (MTT)” value (SH-SY5Y cell line [2]; up to 72 hours) was no less than 1 p M. The “cells in G1/G0 phase” value (U87-MG cell line; p=0.0036) was “reduction in retention”, the “cells in G2/M phase” value (U87-MG cell line; p=0.0425) was “increase in retention” and the “Score: Mitotic figures” value [3] was 1 (4×) and 3. For the same substance, the mitochondrial membrane potential (SH-SY5Y cell line [4]) was “no change in mitochondrial membrane potential”, the “cell proliferation (BrdU)” value ([5]; 0.03 μM, first 48 hours) was “increase in cell proliferation” and the “cell proliferation (BrdU)” value ([5]; highest concentrations (0.3, 3, 30 μM), 144 hours) was “significant reduction in cell proliferation”. The “cell proliferation (BrdU)” value ([5]; highest concentrations (0.3, 3, 30 μM), first 48 hours) was “temporary increase in cell proliferation”, the “cell proliferation (BrdU)” value ([5]; lowest concentrations (0.003 and 0.03 μM), 144 hours) was “statistically significant decrease in proliferation” and the MAPT expression (MAPT; 24 hours) was “transient increase”. For the same substance, the “reduction of MAPT expression” value (MAPT; 96 h) was 82±1.2% and the “reduction of MAPT expression” value (MAPT; 144 h) was 74±4.3%.
